Activity calls are given as the source filed them. The rule behind the calls is not given here.
Tests used:
NIH3T3 = test: Growth inhibition of mouse NIH/3T3 cells after 24 hrs by MTT assay; format: cell-based; conditions: NIH3T3, 24 h
HepG2 [1] = test: Induction of apoptosis in human HepG2 cells at 0.66 uM after 24 hrs by Annexin-V/propidium iodide staining-based flow cytometric analysis; format: functional
HepG2 [2] = test: Induction of apoptosis in human HepG2 cells assessed as early apoptotic cells at 0.33 uM after 24 hrs by Annexin-V/propidium iodide staining-based flow cytometric analysis; format: functional
HepG2 [3] = test: Induction of NO generation in human HepG2 cells assessed as nitrite levels at 0.66 uM after 1 hr by Griess assay (reference value: 12.9 +/- 1.5 uM); format: functional
HepG2 [4] = test: Induction of NO generation in human HepG2 cells assessed as nitrite levels at 0.33 uM after 1 hr by Griess assay (reference value: 12.9 +/- 1.5 uM); format: functional
HepG2 [5] = test: Induction of NO generation in human HepG2 cells assessed as nitrite levels at 0.66 uM after 6 hrs by Griess assay (reference value: 12.6 +/- 1.1 uM); format: functional
HepG2 [6] = test: Induction of NO generation in human HepG2 cells assessed as nitrite levels at 0.33 uM after 6 hrs by Griess assay (reference value: 12.6 +/- 1.1 uM); format: functional
HepG2 [7] = test: Induction of NO generation in human HepG2 cells assessed as nitrite levels at 0.16 uM after 12 hrs by Griess assay (reference value: 12.7 +/- 1.8 uM); format: functional
HepG2 [8] = test: Induction of NO generation in human HepG2 cells assessed as nitrite levels at 0.66 uM after 24 hrs by Griess assay (reference value: 12.8 +/- 1.7 uM); format: functional
HepG2 [9] = test: Induction of NO generation in human HepG2 cells assessed as nitrite levels at 0.16 uM after 24 hrs by Griess assay (reference value: 12.8 +/- 1.7 uM); format: functional
HepG2 [10] = test: Induction of NO generation in human HepG2 cells assessed as nitrite levels at 0.33 uM after 24 hrs by Griess assay (reference value: 12.8 +/- 1.7 uM); format: functional
HepG2 [11] = test: Induction of NO generation in human HepG2 cells assessed as nitrite levels at 0.66 uM after 60 hrs by Griess assay (reference value: 12.8 +/- 1.5 uM); format: functional
L02 = test: Induction of NO generation in human HL-7702 cells assessed as nitrite levels at 0.66 uM after 12 hrs by Griess assay (reference value: 11.8 +/- 1.2 uM); format: functional
HepG2 [12] = test: Growth inhibition of human HepG2 cells pre-incubated with mtADH inhibitor PCDA for 2.5 hrs followed by 0.66 uM compound treatment for 24 hrs by MTT assay; format: functional, cell-based
HepG2 [13] = test: Cell cycle arrest in human HepG2 cells assessed as accumulation at S phase at 0.66 uM after 24 hrs by propidium iodide/RNAse staining-based flow cytometric analysis relative to control; format: functional
HepG2 [14] = test: Induction of apoptosis in human HepG2 cells assessed as inhibition of p53-MDM2 interaction by measuring p53/MDM2 ratio at 1 uM after 24 hrs by Western blot analysis (reference value: 0.48); format: functional

With COc1cccc2oc3cc(OCCCCCO[N+](=O)[O-])cc(O)c3c(=O)c12 the IC50 (NIH3T3) was 378 µM, the Activity (HepG2 [1]) was 86.8% and the Activity (HepG2 [2]) was 64.8%. It also gave an Activity (HepG2 [3]) of 21.6 µM, an Activity (HepG2 [4]) of 19.3 µM and an Activity (HepG2 [5]) of 31.4 µM. For the same compound, the Activity (HepG2 [6]) was 29.6 µM, the Activity (HepG2 [7]) was 25.7 µM and the Activity (HepG2 [8]) was 39.1 µM. The Activity (HepG2 [9]) was 26.2 µM, the Activity (HepG2 [10]) was 35.1 µM and the Activity (HepG2 [11]) was 20.2 µM. For the same compound, the Activity (L02) was 19.3 µM, the “growth inhibition (GI)” value (HepG2 [12]) was “inactive” and the Activity (HepG2 [13]) was 93.1%. The Ratio (HepG2 [14]) was 6.46.
